Test results taken from patent US20150368248A1, “2-SUBSTITUTED-6-BIARYLMETHYLAMINO-9-CYCLOPENTYL-9H-PURINE DERIVATIVES, USE THEREOF AS MEDICAMENTS, AND PHARMACEUTICAL COMPOSITIONS” (UNIVERZITA PALACKEHO V OLOMOUCI, priority 2013, published 2015).
Read-outs that look alike come from different tables or passages of the source.

What was measured:
Hep3B = experiment: MTT cytotoxicity assay (Example 30); assay type: cell-based, human; settings: Homo sapiens, Hep3B
Description: (§1) Cytotoxicity of the compounds is the major property determining their anticancer effect in vivo. One of the parameters used, as the basis for cytotoxicity assays, is the metabolic activity of viable cells.
(§2) We have been using the following cell lines: HUH-7 and PLC/PRF/5 cell lines were maintained in DMEM supplemented with 10% fetal bovine serum, penicillin (100 U/ml) and streptomycin (100 μg/ml). […] HepG2 cell line was maintained in EMEM supplemented with 10% fetal bovine serum, sodium pyruvate (0.11 g/1), penicillin (100 U/ml) and streptomycin (100 μg/ml). All cell lines were cultivated at 37° C. in 5% CO2. For cytotoxicity assays, 3000 cells (10000 cells in case of HepG2 cell line) were seeded into each well of 96 well plate and the next day tested compounds were added at various concentrations in triplicates. Three days after drug addition MTT stock solution (5 mg/ml) was added into each well and incubated for 4 h. After this incubation period, produced formazan was dissolved by DMSO and final absorbance was measured at 570 nm with Synergy H4 Hybrid Multi-Mode Microplate Reader.

HCC-1.1 (3sp) = experiment: MTT cytotoxicity assay (Example 30); assay type: cell-based; settings: Homo sapiens
Description: as §1, §2

HCC-1.2 (3p) = experiment: MTT cytotoxicity assay (Example 30); assay type: cell-based; settings: Homo sapiens
Description: as §1, §2

HUH-7 = experiment: MTT cytotoxicity assay (Example 30); assay type: cell-based; settings: Homo sapiens
Description: as §1, §2

PLC/PRF/5 = experiment: MTT cytotoxicity assay (Example 30); assay type: cell-based; settings: Homo sapiens
Description: as §1, §2

HepG2 = experiment: MTT cytotoxicity assay (Example 30); assay type: cell-based; settings: Homo sapiens
From the text: Cytotoxicity of the compounds is the major property determining their anticancer effect in vivo. One of the parameters used, as the basis for cytotoxicity assays, is the metabolic activity of viable cells. For example, a microtiter assay, which uses (3-(4,5-Dimethylthiazol-2-yl)-2,5-diphenyltetrazolium bromide (MTT), is widely used to quantitate cell proliferation and cytotoxicity. For instance, this assay is used in drug screening programs and in chemosensitivity testing. Because only metabolically active living cells reduce MTT to correspond purple formazan dye, these assays detect viable cells exclusively. The quantity of reduced MTT corresponds to the number of vital cells in the culture.
We have been using the following cell lines: HUH-7 and PLC/PRF/5 cell lines were maintained in DMEM supplemented with 10% fetal bovine serum, penicillin (100 U/ml) and streptomycin (100 μg/ml). Unique HCC-1.2 (3p) and HCC-1.1 (3sp) cell lines (Zilj et al., 2009, Future Oncol, 5(8):1169-79) and Hep3B cells were cultivated in RPMI supplemented with 10% fetal bovine serum, penicillin (100 U/ml) and streptomycin (100 μg/ml). HepG2 cell line was maintained in EMEM supplemented with 10% fetal bovine serum, sodium pyruvate (0.11 g/1), penicillin (100 U/ml) and streptomycin (100 μg/ml). All cell lines were cultivated at 37° C. in 5% CO2. For cytotoxicity assays, 3000 cells (10000 cells in case of HepG2 cell line) were seeded into each well of 96 well plate and the next day tested compounds were added at various concentrations in triplicates. Three days after drug addition MTT stock solution (5 mg/ml) was added into each well and incubated for 4 h. After this incubation period, produced formazan was dissolved by DMSO and final absorbance was measured at 570 nm with Synergy H4 Hybrid Multi-Mode Microplate Reader.

CDK5/p35 = molecular target: T1, CDK5/p35 (Homo sapiens, UniProt Q00535); experiment: Kinase inhibition assay, recombinant kinase, [γ-33P]ATP; assay type: biochemical; settings: read-out: Residual kinase activity, CDK5
T1 construct: purchased ProQinase GmbH (Freiburg, Germany)
Description: (§3) CDK2/Cyclin E kinase was produced in Sf9 insect cells via baculoviral infection and purified on a NiNTA column (Qiagen). CDK5/p35, CDK7Cyclin H/MAT1 and CDK9/Cyclin T1 was purchased from ProQinase GmbH. The kinase reactions were assayed with 1 mg/mL histone H1 (for CDK2 and CDK5) or (YSPTSPS)2KK peptide (for CDK7 and CDK9) in the presence of 15/0.15/1.5/1.5 μM ATP (for CDK2/CDK5/CDK7CDK9), 0.05 μCi [γ-^33P]ATP and of the test compound in a final volume of 10 μL, all in a reaction buffer (60 mM HEPES-NaOH, pH 7.5, 3 mM MgCl2, 3 mM MnCl2, 3 μM Na-orthovanadate, 1.2 mM DTT, 2.5 μg/50 μl PEG20,000). The reactions were stopped by adding 5 μL of 3% aq H3PO4. Aliquots were spotted onto P-81 phosphocellulose (Whatman), washed 3× with 0.5% aq H3PO4 and finally air-dried.
(§4) CDK1/cyclin B and CDK2/cyclin E kinases were produced in Sf9 insect cells via baculoviral infection, while CDK5/p35, CDK7/cyclin H/MAT1, and CDK9/cyclin T1 were purchased from ProQinase (Freiburg, Germany) and assayed as described previously (35). The kinase reactions were assayed with 1 mg/ml histone H1 (for CDK2 and CDK5) or (YSPTSPS)2KK peptide (for CDK7 and CDK9) in the presence of 15/0.15/1.5/1.5 […] ATP (for CDK2/CDK5/CDK7CDK9), […] [γ-^33P]ATP and of the test compound in a final volume of […]. The reaction buffer contained 60 mM HEPES-NaOH, pH 7.5, 3 mM MgCl2, 3 mM MnCl2, 3 mM Na-orthovanadate, 1.2 mM DTT, 2.5 mg/50 ml PEG20.000. The reactions were stopped by adding […] of 3% H3PO4. Aliquots were spotted onto P-81 phosphocellulose (Whatman, GE Healthcare Biosciences, Pittsburgh, USA), washed 3 times with 0.5% H3PO4 and finally air-dried. Kinase inhibition was quantified using a FLA-7000 digital image analyzer (Fujifilm, Tokyo, Japan).

CDK7/cyclin H/MAT1 = molecular target: T2, CDK7/cyclin H/MAT1 (Homo sapiens, UniProt P50613); experiment: as above; assay type: biochemical; settings: read-out: Residual kinase activity, CDK7
T2 construct: purchased ProQinase GmbH (Freiburg, Germany)
Description: as §3, §4

CDK9/Cyclin T1 = molecular target: T3, CDK9/Cyclin T1 (Homo sapiens, UniProt P50750); experiment: as above; assay type: biochemical; settings: read-out: Residual kinase activity, CDK9
T3 construct: purchased ProQinase GmbH (Freiburg, Germany)
Description: as §3, §4

[1] = system: caspase-3/7 activity in Hep3B cell line; experiment: One-step cellular caspase-3/7 activity assay; assay type: cell-based, human; settings: 24 hours, 0 nM = 1.00
Description: (§5) Measurements of proapoptotic properties of new compounds were based on quantification of enzymatic activities of caspases, concretely caspases-3/7. Activity of cellular caspase-3/7 was measured according to Carrasco et al., 2003, BioTechniques, 34(5): 1064-67. Briefly, Hep3B and PLC/PRF/5 cells were incubated in the densities of 10000 cells/well in a 96-well plate overnight. Next day, the compounds in appropriate concentrations were added and cells were incubated for the 24 hours. After incubation, 3× caspase-3/7 assay buffer (150 mM HEPES pH 7.4, 450 mM NaCl, 150 mM KCl, 30 mM MgCl2, 1.2 mM EGTA, 1.5% Nonidet P40, 0.3% CHAPS, 30% sucrose, 30 mM DTT, 3 mM PMSF) with 150 μM Ac-DEVD-AMC as a substrate (Sigma-Aldrich) was added to the wells and plates were incubated at […]. The caspase-3/7 activity was measured after 6 hours using Fluoroskan Ascent microplate reader (Labsystems) at 346 nm/442 nm (excitation/emission).

[2] = system: caspase-3/7 activity in PLC/PRF/5 cell line; experiment: One-step cellular caspase-3/7 activity assay; assay type: cell-based, human; settings: 24 hours incubation, relative to 0 nM = 1.00
Description: as §5

[3] = system: p53-regulated transcription in Arn8 cells; experiment: p53-dependent transcriptional activity, β-galactosidase reporter; assay type: cell-based; settings: 24 h incubation
Description: Stronger anticancer activity of the compounds is enhanced by its positive impact on stability and activity of the tumour suppressor p53. To measure p53-dependent transcriptional activity, β-galactosidase activity was quantified in the melanoma cell line Arn8, which had been established using stable transfection of cells with a p53-responsive reporter construct pRGCAfoslacZ (Frebung et al., Cancer Res., 52, 1992-6976). Briefly, after 24 h incubation with the inhibitors the Arn8 cells were permeabilized with 0.3% Triton X-100 for 15 min and then 4-methylumbelliferon-β-D-galactopyranoside was added as a substrate to the final concentration of 80 μM. After 1 h the fluorescence of product 4-methylumbelliferon was measured at 355/460 nm (ex/em) with a Fluoroskan Ascent microplate reader (Labsystems). Data in Tab. 8 present that series of 2-substituted-6-biarylmethylamino-9-cyclopentyl-9H-purine derivatives show a dose-dependent activatory effect on p53-regulated transcription, with the maximum impact observed between 100 and 500 nM concentrations for most of prepared compounds (Tab. 8).

[4] = system: human umbilical vein endothelial cells (HUVEC); experiment: HUVEC proliferation, Calcein AM; assay type: cell-based; settings: Homo sapiens, HUVEC, read-out: Inhibitory concentration for HUVEC cells - IC50
Description: Novel 2-substituted-6-biarylmethylamino-9-cyclopentyl-9H-purine derivatives were tested for their potential anti-angiogenic properties; we analyzed its influence on the proliferation (Tab. 9), migration and tube formation of human umbilical vein endothelial cells (HUVEC). Confluent HUVECs were seeded in 96-well microtiter plates to detect their proliferation for 24 or 72 h using Calcein AM solution (Invitrogen) and a Fluoroskan Ascent microplate reader (Labsystems) as described previously (Krystof et al., 2011, Eur J Med Chem. 2011 September; 46(9):4289-94).

[5] = Table 3, read-out: Inhibitory concentration IC50, Hep3B (reference molecules)
[6] = Table 3, read-out: Inhibitory concentration IC50, AKH3sp (reference molecules)
[7] = HCC-1.2, Table 3, read-out: Inhibitory concentration IC50, AKH3p (reference molecules)
[8] = Huh-7, Table 3, read-out: Inhibitory concentration IC50, HUH-7 (reference molecules)
[9] = PLC-PRF-5, Table 3, read-out: Inhibitory concentration IC50, PLC/PRF/5 (reference molecules)
[10] = HepG2, Table 3, read-out: Inhibitory concentration IC50, HepG2 (reference molecules)

T1 sequence (Q00535 whole entry): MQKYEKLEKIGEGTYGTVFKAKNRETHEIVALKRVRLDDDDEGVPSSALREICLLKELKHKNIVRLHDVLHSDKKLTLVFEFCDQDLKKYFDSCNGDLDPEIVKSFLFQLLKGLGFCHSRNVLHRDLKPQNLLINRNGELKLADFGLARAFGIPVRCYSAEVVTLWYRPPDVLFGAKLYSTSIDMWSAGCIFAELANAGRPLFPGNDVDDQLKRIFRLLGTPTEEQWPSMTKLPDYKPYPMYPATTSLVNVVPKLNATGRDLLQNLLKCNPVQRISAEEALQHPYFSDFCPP
T1 sequence (Q15078 whole entry partner): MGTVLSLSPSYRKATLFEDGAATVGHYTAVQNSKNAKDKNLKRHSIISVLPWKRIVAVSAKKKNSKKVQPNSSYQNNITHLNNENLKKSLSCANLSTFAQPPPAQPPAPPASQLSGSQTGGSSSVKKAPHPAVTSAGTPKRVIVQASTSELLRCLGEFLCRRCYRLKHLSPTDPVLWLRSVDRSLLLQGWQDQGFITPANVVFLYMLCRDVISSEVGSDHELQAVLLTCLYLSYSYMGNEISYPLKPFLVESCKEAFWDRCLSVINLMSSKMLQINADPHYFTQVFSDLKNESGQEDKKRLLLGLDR
T3 sequence (P50750 whole entry): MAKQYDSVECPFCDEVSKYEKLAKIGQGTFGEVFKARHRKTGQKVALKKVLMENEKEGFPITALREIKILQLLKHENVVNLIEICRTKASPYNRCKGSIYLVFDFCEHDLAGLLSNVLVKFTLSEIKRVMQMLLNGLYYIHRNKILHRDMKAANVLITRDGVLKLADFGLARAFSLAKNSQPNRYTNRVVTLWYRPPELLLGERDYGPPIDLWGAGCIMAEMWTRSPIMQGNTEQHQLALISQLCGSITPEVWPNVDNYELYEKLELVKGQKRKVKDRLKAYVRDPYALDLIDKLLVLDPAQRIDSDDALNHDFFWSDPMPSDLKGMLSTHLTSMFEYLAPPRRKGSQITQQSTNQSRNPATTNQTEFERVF
T3 sequence (O60563 whole entry partner): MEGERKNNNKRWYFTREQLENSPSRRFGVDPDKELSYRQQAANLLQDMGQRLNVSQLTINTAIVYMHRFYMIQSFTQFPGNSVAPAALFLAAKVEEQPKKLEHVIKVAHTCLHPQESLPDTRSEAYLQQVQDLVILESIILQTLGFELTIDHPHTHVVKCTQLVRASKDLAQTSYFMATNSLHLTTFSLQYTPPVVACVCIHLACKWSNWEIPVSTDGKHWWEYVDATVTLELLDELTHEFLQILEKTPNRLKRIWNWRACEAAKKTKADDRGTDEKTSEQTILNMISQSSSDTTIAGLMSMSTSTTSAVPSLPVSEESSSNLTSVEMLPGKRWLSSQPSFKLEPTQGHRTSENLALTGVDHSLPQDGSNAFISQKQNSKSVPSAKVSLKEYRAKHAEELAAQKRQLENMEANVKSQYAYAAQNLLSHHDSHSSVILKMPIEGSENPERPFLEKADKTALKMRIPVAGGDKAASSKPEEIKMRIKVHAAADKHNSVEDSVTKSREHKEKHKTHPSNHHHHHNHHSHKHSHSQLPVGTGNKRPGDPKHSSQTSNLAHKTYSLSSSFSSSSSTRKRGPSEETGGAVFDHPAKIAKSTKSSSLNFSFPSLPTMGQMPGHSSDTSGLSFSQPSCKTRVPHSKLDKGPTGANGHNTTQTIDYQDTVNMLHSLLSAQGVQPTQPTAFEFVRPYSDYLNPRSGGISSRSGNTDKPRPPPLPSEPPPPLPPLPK
T2 sequence (P50613 whole entry): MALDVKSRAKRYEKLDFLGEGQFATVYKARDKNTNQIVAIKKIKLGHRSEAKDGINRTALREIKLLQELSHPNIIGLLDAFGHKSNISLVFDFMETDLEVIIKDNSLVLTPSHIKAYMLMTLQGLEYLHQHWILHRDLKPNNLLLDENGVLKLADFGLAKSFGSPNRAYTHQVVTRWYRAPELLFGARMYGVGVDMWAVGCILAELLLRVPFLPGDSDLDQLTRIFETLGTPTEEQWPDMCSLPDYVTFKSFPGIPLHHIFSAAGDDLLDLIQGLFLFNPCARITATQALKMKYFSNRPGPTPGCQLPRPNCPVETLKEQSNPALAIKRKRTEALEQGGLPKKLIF
T2 sequence (P51946 whole entry partner): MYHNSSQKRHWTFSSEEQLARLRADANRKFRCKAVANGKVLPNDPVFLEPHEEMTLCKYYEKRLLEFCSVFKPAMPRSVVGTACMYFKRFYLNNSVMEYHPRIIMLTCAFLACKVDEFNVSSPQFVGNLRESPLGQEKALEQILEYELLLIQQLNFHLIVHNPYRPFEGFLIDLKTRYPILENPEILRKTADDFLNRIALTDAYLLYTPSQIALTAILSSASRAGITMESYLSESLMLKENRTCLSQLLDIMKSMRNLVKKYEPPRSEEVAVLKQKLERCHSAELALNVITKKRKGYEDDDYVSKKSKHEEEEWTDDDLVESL
T2 sequence (P51948 whole entry partner): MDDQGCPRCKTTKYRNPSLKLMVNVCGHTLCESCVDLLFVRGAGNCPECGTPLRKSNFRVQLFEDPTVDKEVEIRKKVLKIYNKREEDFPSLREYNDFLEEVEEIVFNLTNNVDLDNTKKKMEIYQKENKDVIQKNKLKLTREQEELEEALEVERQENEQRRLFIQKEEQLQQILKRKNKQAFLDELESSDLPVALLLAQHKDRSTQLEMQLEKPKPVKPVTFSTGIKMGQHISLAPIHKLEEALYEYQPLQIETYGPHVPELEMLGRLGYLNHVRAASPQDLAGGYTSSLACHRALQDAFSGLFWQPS

NC1CCC(Nc2nc(NCc3ccc(Br)nc3)c3ncn(C4CCCC4)c3n2)CC1 (stereo not drawn) [BP110, N^2-(4-amino-cyclohexyl)-N^6-(6-bromo-pyridin-3-ylmethyl)-9-cyclopentyl-9H-purine-2,6-diamine]
IC50 (Hep3B; 72 h, MTT, three days after drug addition, read-out: Inhibitory concentration IC50, Hep3B): 488 nM | IC50 (HCC-1.1 (3sp); 72 h, MTT, three days after drug addition, read-out: Inhibitory concentration IC50, 3sp): 515 nM | IC50 (HCC-1.2 (3p); HCC-1.2, 72 h, MTT, three days after drug addition, read-out: Inhibitory concentration IC50, 3p): 334 nM | IC50 (HUH-7; Huh-7, 72 h, MTT, three days after drug addition, read-out: Inhibitory concentration IC50, HUH-7): 513 nM | IC50 (PLC/PRF/5; PLC-PRF-5, 72 h, MTT, three days after drug addition, read-out: Inhibitory concentration IC50, PLC/PRF/5): 400 nM | IC50 (HepG2; HepG2, 72 h, MTT, three days after drug addition, read-out: Inhibitory concentration IC50, HepG2): > 1000 nM | melting point: 114 to 116 °C

CC(C)(O)CNc1nc(NCc2ccc(-c3ccco3)nc2)c2ncn(C3CCCC3)c2n1 [BP117, 1-{9-cyclopentyl-6-[(6-furan-2-yl-pyridin-3-ylmethyl)-amino]-9H-purine-2-ylamino}-2-methyl-propan-2-ol]
remaining activity at 0.1 µM (CDK5/p35; 100 nM): 76.7% | remaining activity at 1 µM (CDK5/p35; 1000 nM): 39.6% | remaining activity at 0.1 µM (CDK7/cyclin H/MAT1; 100 nM): 76.3% | remaining activity at 1 µM (CDK7/cyclin H/MAT1; 1000 nM): 68.3% | remaining activity at 0.1 µM (CDK9/Cyclin T1; 100 nM): 52.7% | remaining activity at 1 µM (CDK9/Cyclin T1; 1000 nM): 23.2% | Relative caspase-3/7 activity in Hep3B cell line ([1]; 200 nM): 0.77 | Relative caspase-3/7 activity in Hep3B cell line ([1]; 400 nM): 0.89 | Relative caspase-3/7 activity in Hep3B cell line ([1]; 800 nM): 1.06 | Relative caspase-3/7 activity in Hep3B cell line ([1]; 1600 nM): 2.00 | Relative caspase-3/7 activity in PLC/PRF/5 cell line ([2]; compound concentration 160 nM): 0.79 | Relative caspase-3/7 activity in PLC/PRF/5 cell line ([2]; compound concentration 320 nM): 1.17 | Relative caspase-3/7 activity in PLC/PRF/5 cell line ([2]; compound concentration 640 nM): 2.60 | Relative caspase-3/7 activity in PLC/PRF/5 cell line ([2]; compound concentration 1280 nM): 2.99 | Concentration of maximum activation [3]: 950 nM | melting point: 128 to 129 °C

COc1cccc2c1C(=O)c1c(O)c3c(c(O)c1C2=O)C[C@@](O)(C(=O)CO)C[C@@H]3O[C@H]1C[C@H](N)[C@H](O)[C@H](C)O1 [doxorubicin, reference compound]
IC50 (Hep3B; [5]): 460 nM | IC50 (HCC-1.1 (3sp); [6]): 270 nM | IC50 (HCC-1.2 (3p); [7]): 540 nM | IC50 (HUH-7; [8]): 1250 nM | IC50 (PLC/PRF/5; [9]): 670 nM | IC50 (HepG2; [10]): 1380 nM | IC50 ([4]; 24 h): > 6600 nM | IC50 ([4]; 72 h): > 6600 nM

CNC(=O)c1cc(Oc2ccc(NC(=O)Nc3ccc(Cl)c(C(F)(F)F)c3)cc2)ccn1 [sorafenib, reference compound]
IC50 (Hep3B; [5]): 3740 nM | IC50 (HCC-1.1 (3sp); [6]): 6390 nM | IC50 (HCC-1.2 (3p); [7]): 4420 nM | IC50 (HUH-7; [8]): 2860 nM | IC50 (PLC/PRF/5; [9]): 4060 nM | IC50 (HepG2; [10]): 5850 nM | IC50 ([4]; 24 h): > 50000 nM | IC50 ([4]; 72 h): > 10000 nM
